Measured values from patent US7396842B2, “Five-membered cyclic compounds” (Dianippon Sumitomo Pharma Co., Ltd., priority 2002, dated 2008).

What follows are molecules tested against T1, SMBS on rat lung membranes (Rattus norvegicus, UniProt A0A8I6A822) (assay: Receptor binding of the compound in rat lung membranes ([125I]-iodo-cyanopindolol ligand binding assay; Experiments 1 and 4)). Conditions: Table 43; concentration tested 30 μM; rat lung membranes; Experiment 4; read-out: Binding Activity (30 μM).
T1 construct: from tissue; host or cells: rat lung membranes (SD male rats)
Protocol: Evaluation Test on Receptor Binding of the Compound in Rat Lung Membranes:
This experiment was carried out according to the method disclosed in Sugasawa et al., (Sugasawa, T. et al., J. Biol. Chem., 272, 21244-21252(1997)).
Preparation of Rat Lung Membranes
The air tube and blood vessels were removed from the lung excised from SD male rats (7-weeks old when used, purchased from Charles River Japan, Inc.), and the lung was chopped, and washed with ice-cold tris-saline buffer (10 mM Tris-HCl, 154 mM sodium chloride, pH 7.4). The lung was homogenized by PHYSCOTRON (maximum speed: 1 minute) in a buffer for homogenization (tris-saline buffer containing 1 mM ethylenediaminetetraacetate (EDTA), 1 mM 4-(2-aminoethyl)-benzenesulfonyl fluoride (AEBSF), 5 μg/ml aprotinin, 5 μg/ml leupeptin) under ice-cooling. The mixture was centrifuged at a low speed (1500×g, 20 minutes, 4° C.), and the supernatant was super-centrifuged (100000×g, 20 minutes, 4° C.). The pellets thus obtained were suspended in tris-saline buffer, and kept at −80° C. The concentration of protein was measured by a Protein Assay Kit manufactured by Bio-Rad using bovine serum albumin (BSA) as standard.
To each well of a protein-non-adsorbent round-bottom 96-well assay plate (purchased from IWAKI GLASS CO., LTD.) was added tris-saline buffer (200 μl) containing 1 nM [^125I]-iodo-cyanopindolol (purchased from Amarsham), 10 μM serotonin, 20 μM dl-propranol, 10 μM phentoramine, 1.1 mM ascorbic acid and 100 μg lung membranes, and the mixture was mixed well by pipetting, and the plate was incubated at 37° C. for 30 minutes. Test compounds were dissolved in 100% dimethylsulfoxide, and added to the plate in an amount of 2 μl (final concentration of DMSO: 1%). In order to obtain non-specific binding, L-threo-3-(3,4-dihydroxyphenyl)-N-[3-(4-fluorophenyl)propyl]-serinepyrrolidinamide was added at a final concentration of 100 μM instead of test compound. During this period, 0.3% polyethyleneimine (PEI)/tris-saline buffer (100 μl) was added to a multiscreen plate (96-well B-glassfiber, milipore Cat. No. MAFB NOB10) and the plate was incubated for more than 30 minutes. The plate was washed by vacuum filtration (by adding ice-cold tris-saline buffer (200 μl) and then vacuum filtration), and the reaction solution on the 96-well assay plate was washed by vacuum filtration onto the multiscreen plate for four times. The B-glassfiber paper filter at the bottom of the multiscreen plate was punched out, and the γ-ray amount of [^125I]-iodo-cyanopindolol being trapped onto the paper filter was measured as binding amount. The binding amount in the presence of DMSO (final concentration: 1%) was regarded as total binding, and the binding in the presence of L-threo-3-(3,4-dihydroxyphenyl) -N-[3-(4-fluorophenyl)-propyl]serinepyrrolidinamide was regarded as non-specific binding. The value which is calculated by subtracting non-specific binding from total binding is specific binding. The binding activity of the compound can be calculated by the following equation, and expressed in a ratio of inhibiting the specific binding of [^125I]-iodo-cyanopindorol to SMBS on rat lung membranes.
In the same manner to in Experiment 1, the receptor binding assay was carried out on the present compounds by using the rat lung membranes.

T1 sequence (A0A8I6A822 27-587): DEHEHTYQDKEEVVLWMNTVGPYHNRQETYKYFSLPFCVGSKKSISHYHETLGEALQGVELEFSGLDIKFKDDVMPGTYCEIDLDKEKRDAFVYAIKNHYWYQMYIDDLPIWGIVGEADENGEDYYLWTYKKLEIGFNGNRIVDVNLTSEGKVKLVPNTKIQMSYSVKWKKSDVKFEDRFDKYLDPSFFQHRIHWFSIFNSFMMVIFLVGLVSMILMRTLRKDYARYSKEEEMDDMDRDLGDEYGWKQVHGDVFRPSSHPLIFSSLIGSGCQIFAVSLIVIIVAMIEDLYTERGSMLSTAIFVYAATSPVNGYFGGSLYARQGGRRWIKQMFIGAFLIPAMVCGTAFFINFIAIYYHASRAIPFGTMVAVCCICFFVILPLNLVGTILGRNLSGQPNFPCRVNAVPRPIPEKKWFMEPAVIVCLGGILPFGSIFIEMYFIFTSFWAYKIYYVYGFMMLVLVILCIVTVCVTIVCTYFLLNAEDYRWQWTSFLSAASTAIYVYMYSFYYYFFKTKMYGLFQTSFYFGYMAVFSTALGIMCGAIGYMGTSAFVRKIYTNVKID

Row | SMILES | inhibition at 30 µM
1 | COCCNC(=O)NCCCn1c(-c2ccc(N3CCOCC3)cc2)cs/c1=N\c1ccc(F)cc1 [Example 355] | 89%
2 | O=C(CN1CCCC1)NCCCn1c(-c2ccc(N3CCOCC3)cc2)csc1=Nc1ccc(F)cc1 [Example 357, N-{3-[2-[(4-Fluorophenyl)imino]-4-[4-(morpholino)phenyl]thiazol-3(2H)-yl]propyl}-2-(1-pyrrolidinyl)acetamide] | 86%
3 | O=C(CNc1ccccc1)NCCCn1c(-c2ccc(N3CCOCC3)cc2)cs/c1=N\c1ccc(F)cc1 [Example 359] | 82%
4 | CN(C)CC(=O)NCCCn1c(-c2ccc(N3CCOCC3)cc2)cs/c1=N\c1ccc(F)cc1 [Example 361] | 88%
5 | COc1ccc(C/N=c2\scc(-c3ccc(OC(F)(F)F)cc3)n2CCCN)c(OC)c1 [Example 362, 3-[2-[(2,4-Dimethoxybenzyl)imino]-4-[4-(trifluoromethoxy)phenyl]-1,3-thiazol-3(2H)-yl]-1-propanamine] | 117%
6 | COc1ccc(C/N=c2\scc(-c3ccc(OC(F)(F)F)cc3)n2CCCNC(C)=O)c(OC)c1 [Example 373, N-{3-[2-[(2,4-dimethoxybenzyl)imino]-4-[4-(trifluoromethoxy)phenyl]-1,3-thiazol-3(2H)-yl]propyl}acetamide] | 90%
7 | COCC(=O)NCCCn1c(-c2ccc(OC(F)(F)F)cc2)cs/c1=N\Cc1ccc(OC)cc1OC [Example 383, N-{3-[2-[(2,4-Dimethoxybenzyl)imino]-4-[4-(trifluoromethoxy)phenyl]-1,3-thiazol-3(2H)-yl]propyl}-2-methoxyacetamide] | 84%
8 | O=C(CN1CCCC1)NCCCn1c(-c2ccc(OC(F)(F)F)cc2)cs/c1=N\Cc1ccc(Cl)cc1 [Example 384, N-{3-[2-[(4-Chlorobenzyl)imino]-4-[4-(trifluoromethoxy)phenyl]-1,3-thiazol-3(2H)-yl]propyl}-2-(1-pyrrolidinyl)acetamide] | 107%
9 | CCNC(=O)NCCCn1c(-c2ccc(F)cc2)cs/c1=N\Cc1ccc(Cl)cc1OC [Example 402, N-{3-[2-[(4-Chloro-2-methoxybenzyl)imino]-4-(4-fluorophenyl)-1,3-thiazol-3(2H)-yl]propyl}-N′-ethylurea] | 79%
10 | COCCNC(=O)NCCCn1c(-c2ccc(OC(F)(F)F)cc2)cs/c1=N\Cc1ccc(Cl)cc1 [Example 409, N-{3-[2-[(4-Chlorobenzyl)imino]-4-[4-(trifluoromethoxy)phenyl]-1,3-thiazol-3(2H)-yl]propyl}-N′-(2-methoxyethyl)urea] | 89%
11 | COCCNCCCn1c(-c2ccc(F)cc2)cs/c1=N\Cc1ccc(Cl)cc1OC [Example 411, 3-[2-[(4-Chloro-2-methoxybenzyl)imino]-4-(4-fluorophenyl)-1,3-thiazol-3(2H)-yl]-(2-methoxyethyl)-1-propanamine] | 118%
12 | CCNC(=O)CNCCCn1c(-c2ccc(OC(F)(F)F)cc2)cs/c1=N\Cc1ccc(Cl)cc1 [Example 417, N^2-{3-[2-[(4-Chlorobenzyl)imino]-4-[4-(trifluoromethoxy)phenyl]-1,3-thiazol-3(2H)-yl]propyl}-N^1-ethylglycinamide] | 113%

Same assay, conditions: Table 44; concentration tested 30 μM; rat lung membranes; Experiment 4; read-out: Binding Activity (30 μM)

Row | SMILES | inhibition at 30 µM
13 | CCOC(=O)NCCCn1c(-c2ccc(OC(F)(F)F)cc2)cs/c1=N\Cc1ccc(Cl)cc1 [Example 368] | 100%
14 | O=C(NCCCn1c(-c2ccc(OC(F)(F)F)cc2)cs/c1=N\Cc1ccc(Cl)cc1)Nc1ccc(F)cc1 [Example 393] | 80%
15 | CCNC(=O)NCCCn1c(-c2ccc(OC)cc2)cs/c1=N\CCc1ccncc1 [Example 398] | 37%
16 | CN(C)C(=O)NCCCn1c(-c2ccc(OC(F)(F)F)cc2)cs/c1=N\Cc1ccc(Cl)cc1 [Example 404] | 109%
17 | O=C(NCCCn1c(-c2ccc(OC(F)(F)F)cc2)cs/c1=N\Cc1ccc(Cl)cc1)N1CCOCC1 [Example 405] | 115%
18 | O=C(NCCCn1c(-c2ccc(OC(F)(F)F)cc2)cs/c1=N\Cc1ccc(Cl)cc1)NCCN1CCCC1 [Example 408] | 121%
19 | COc1ccc(C/N=c2\scc(-c3ccc(OC(F)(F)F)cc3)n2CCCNCC(F)(F)F)c(OC)c1 [Example 413] | 96%
20 | O=C(CNCCCn1c(-c2ccc(OC(F)(F)F)cc2)cs/c1=N\Cc1ccc(Cl)cc1)NCCO [Example 423] | 113%
21 | O=C(O)CNCCCn1c(-c2ccc(OC(F)(F)F)cc2)cs/c1=N\Cc1ccc(Cl)cc1 [Example 427, N-{3-[2-[(4-Chlorobenzyl)imino]-4-[4-(trifluoromethoxy)phenyl]-1,3-thiazol-3(2H)-yl]propyl}glycine] | 100%
22 | O=C(O)CCNCCCn1c(-c2ccc(OC(F)(F)F)cc2)cs/c1=N\Cc1ccc(Cl)cc1 [Example 428] | 103%
23 | COc1cc(Cl)ccc1C/N=c1\scc(-c2ccc(F)cc2)n1CCCNC(=N)N [Example 429, N′-{3-[2-[(4-Chloro-2-methoxybenzyl)imino]-4-(4-fluorophenyl)-1,3-thiazol-3(2H)-yl]propyl}guanidine] | 103%
24 | CCS(=O)(=O)NCCCn1c(-c2ccc(OC(F)(F)F)cc2)cs/c1=N\Cc1ccc(Cl)cc1 [Example 430, N′-{3-[2-[(4-Chlorobenzyl)imino]-4-[4-(trifluoromethoxy)phenyl]-1,3-thiazol-3(2H)-yl]propyl}ethanesulfonamide] | 89%
25 | COc1ccc(C(=O)/N=c2\scc(C(=O)Nc3ccc(Cl)cc3)n2CCCN)c(OC)c1 [Example 431, 3-(3-Aminopropyl)-N-(4-chlorophenyl)-2-[(2,4-dimethoxybenzoyl)imino]-2,3-dihydro-1,3-thiazol-4-carboxamide] | 95%
26 | COc1ccc(C(=O)/N=c2\scc(C(=O)N3CCc4ccccc4C3)n2CCCN)c(OC)c1 [Example 432] | 42%
27 | COc1ccc(C(=O)/N=c2\scc(C(=O)NCCCCc3ccccc3)n2CCCN)c(OC)c1 [Example 435] | 93%
28 | COc1ccc(C(=O)/N=c2\scc(-c3ccc(OC(F)(F)F)cc3)n2CCCN)c(OC)c1 [Example 437] | 106%
29 | NCCCn1c(-c2ccc(OC(F)(F)F)cc2)cs/c1=N\C(=O)c1ccco1 [Example 441] | 61%
30 | CCOC(=O)NCCCn1c(-c2ccc(OC(F)(F)F)cc2)cs/c1=N\C(=O)c1ccc(OC)cc1OC [Example 444] | 99%
31 | CCCC(=O)NCCCn1c(-c2ccc(OC(F)(F)F)cc2)cs/c1=N\C(=O)c1ccc(OC)cc1OC [Example 447] | 89%
32 | CCCCCC(=O)NCCCn1c(-c2ccc(OC(F)(F)F)cc2)cs/c1=N\C(=O)c1ccc(OC)cc1OC [Example 448] | 77%
33 | CC(=O)NCCCn1c(-c2ccc(OC(F)(F)F)cc2)cs/c1=N\C(=O)c1ccccn1 [Example 449] | 71%
34 | CC(=O)NCCCn1c(-c2ccc(OC(F)(F)F)cc2)cs/c1=N\C(=O)c1ccncc1 [Example 452] | 84%
35 | CC(=O)NCCCn1c(-c2ccc(OC(F)(F)F)cc2)cs/c1=N\C(=O)CCc1ccccc1 [Example 454] | 38%
36 | CC(=O)NCCCn1c(-c2ccc(OC(F)(F)F)cc2)cs/c1=N\C(=O)CC1CCCC1 [Example 458] | 87%

Same assay, conditions: ratio of inhibiting the specific binding of [125I]-iodo-cyanopindolol; test concentration 30 μM; rat lung membranes; read-out: Binding Activity (30 μM)

Row | SMILES | inhibition at 30 µM
37 | COc1ccc(C(=O)/N=c2\scc(C(=O)Nc3ccc(Cl)cc3)n2CCCNC(C)=O)c(OC)c1 [Example 461] | 42%
38 | COc1ccc(C(=O)/N=c2\scc(C(=O)NCc3ccc(Cl)cc3)n2CCCNC(C)=O)c(OC)c1 [Example 463] | 10%

Same assay, conditions: read-out: Binding Activity (30 μM)

Row | SMILES | inhibition at 30 µM
39 | O=C(NCCCl)NCCCn1c(-c2ccc(OC(F)(F)F)cc2)cs/c1=N\Cc1ccc(Cl)cc1 [Example 390] | 120%
